Experimental data published in ChEMBL document CHEMBL1159092, “Polar 3-alkylidene-5-pivaloyloxymethyl-5'-hydroxymethyl-gamma-lactones as protein kinase C ligands and antitumor agents” (Bioorg Med Chem Lett, 2010).
Values after ≈ are worked out from the molar mass of the structure shown.

Assays:
[1] = Antitumor activity against human Hs 578T cells; type: functional
COLO 205 = test: Antitumor activity against human COLO205 cells; type: functional
SK-MEL-5 = test: Antitumor activity against human SK-MEL-5 cells; type: functional
[2] = Antitumor activity against human NCI-H322 cells; type: functional
[3] = target: Protein kinase C alpha type (Homo sapiens, UniProt P17252); test: Displacement of [20-3H]phorbol 12,13-dibutyrate from recombinant PKCalpha
K562 = test: Antitumor activity against human K562 cells; type: functional
MOLT-4F = test: Antitumor activity against human MOLT4F cells; type: functional
CCRF-CEM = test: Antitumor activity against human CCRF-CEM cells; type: functional
HL-60 = test: Antitumor activity against human HL60 cells; type: functional

| SMILES | GI50 (COLO 205) [µg/mL] | GI50 (SK-MEL-5) [µg/mL] | Ki [3] [nM] | GI50 (K562) [µg/mL] | GI50 (MOLT-4F) [µg/mL] | GI50 (CCRF-CEM) [µg/mL] | GI50 (HL-60) [µg/mL] | GI50 [1] [µg/mL] | GI50 [2] [µg/mL] |
| --- | --- | --- | --- | --- | --- | --- | --- | --- | --- |
| CCCCCCCCCOCCCCCCC/C=C1\CC(CO)(COC(=O)C(C)(C)C)OC1=O (stereo not given) | 0.264 (≈ 0.547 µM) | 1.43 (≈ 2.96 µM) | 3.2 | 0.156 (≈ 0.323 µM) | 2.14 (≈ 4.43 µM) | 0.304 (≈ 0.63 µM) | 4.53 (≈ 9.37 µM) | 4.64 (≈ 9.61 µM) | > 10 |
| COCOCCCCCCC/C=C1\CC(CO)(COC(=O)C(C)(C)C)OC1=O (stereo not given) | 2.01 (≈ 5.01 µM) | 8.33 (≈ 20.8 µM) | 198 | 3.69 (≈ 9.22 µM) | 1.84 (≈ 4.6 µM) | > 10 | > 10 | > 10 | > 10 |
| COC(=O)CCCCCC/C=C1\CC(CO)(COC(=O)C(C)(C)C)OC1=O (stereo not given) | – | – | 533 | – | – | – | – | – | – |
| COC(=O)CCCCCCCCCCCCCC/C=C1\CC(CO)(COC(=O)C(C)(C)C)OC1=O (stereo not given) | 3.86 (≈ 7.77 µM) | 7.8 (≈ 15.7 µM) | 6.83 | 0.856 (≈ 1.72 µM) | > 10 | 0.691 (≈ 1.39 µM) | > 10 | > 10 | > 10 |
| COCCCCCCCCCCCCCCC/C=C1/CC(CO)(COC(=O)C(C)(C)C)OC1=O (stereo not given) | 0.178 (≈ 0.369 µM) | 2.13 (≈ 4.42 µM) | 5 | 0.138 (≈ 0.286 µM) | 1.64 (≈ 3.4 µM) | < 0.1 | 3.97 (≈ 8.22 µM) | 6.77 (≈ 14 µM) | > 10 |
| CCCCCOCCCCCCC/C=C1\CC(CO)(COC(=O)C(C)(C)C)OC1=O (stereo not given) | 0.491 (≈ 1.15 µM) | 2.99 (≈ 7.02 µM) | 8.1 | 1.15 (≈ 2.69 µM) | 1.03 (≈ 2.41 µM) | 0.877 (≈ 2.06 µM) | 2.96 (≈ 6.94 µM) | 3 (≈ 7.04 µM) | 9.52 (≈ 22.3 µM) |
| CC(C)(C)C(=O)OCCCCCCCCCCCCCCC/C=C1\CC(CO)(COC(=O)C(C)(C)C)OC1=O (stereo not given) | 0.597 (≈ 1.08 µM) | 3.46 (≈ 6.25 µM) | 10.5 | 0.352 (≈ 0.637 µM) | 0.605 (≈ 1.09 µM) | > 10 | 7.78 (≈ 14.1 µM) | 5.24 (≈ 9.48 µM) | > 10 |
| CC(C)(C)C(=O)OCC1(CO)C/C(=C\CCCCCCCCCCCCCCCN=[N+]=[N-])C(=O)O1 (stereo not given) | – | – | 15.6 | – | – | – | – | – | – |
| CC(=O)NCCCCCCCCCCCCCCC/C=C1\CC(CO)(COC(=O)C(C)(C)C)OC1=O (stereo not given) | 4.74 (≈ 9.29 µM) | > 10 | 8.25 | 3.38 (≈ 6.64 µM) | 6.35 (≈ 12.5 µM) | 1.08 (≈ 2.11 µM) | > 10 | > 10 | > 10 |
| CC(=O)OCCCCCCCCCCCCCCC/C=C1\CC(CO)(COC(=O)C(C)(C)C)OC1=O (stereo not given) | 2.1 (≈ 4.11 µM) | 5.62 (≈ 11 µM) | 9.3 | 0.959 (≈ 1.88 µM) | 1.55 (≈ 3.03 µM) | 7.55 (≈ 14.8 µM) | > 10 | > 10 | > 10 |
| COCCCCCCCCCCCCCCC/C=C1\CC(CO)(COC(=O)C(C)(C)C)OC1=O (stereo not given) | 0.118 (≈ 0.244 µM) | 1.75 (≈ 3.63 µM) | 4.4 | 0.189 (≈ 0.392 µM) | 0.498 (≈ 1.03 µM) | 4.26 (≈ 8.83 µM) | 4.65 (≈ 9.64 µM) | 5.45 (≈ 11.3 µM) | > 10 |
| CC(C)(C)C(=O)OCC1(CO)C/C(=C\CCCCCCCOC2CCCC2)C(=O)O1 (stereo not given) | – | – | 10.2 | – | – | – | – | – | – |
| CCCCCCCCC(O)CCCCCC/C=C1\CC(CO)(COC(=O)C(C)(C)C)OC1=O (stereo not given) | 8.91 (≈ 19 µM) | > 10 | 118 | 7.3 (≈ 15.6 µM) | 7.91 (≈ 16.9 µM) | 5.71 (≈ 12.2 µM) | > 10 | > 10 | > 10 |
| CC(C)CCOCCCCCCC/C=C1\CC(CO)(COC(=O)C(C)(C)C)OC1=O (stereo not given) | – | – | 7.74 | – | – | – | – | – | – |
| COCCOCOCCCCCCC/C=C1\CC(CO)(COC(=O)C(C)(C)C)OC1=O (stereo not given) | – | – | 323 | – | – | – | – | – | – |
| COc1cccc2c1C(=O)c1c(O)c3c(c(O)c1C2=O)C[C@@](O)(C(=O)CO)C[C@@H]3O[C@H]1C[C@H](N)[C@H](O)[C@H](C)O1.Cl [DOXORUBICIN HYDROCHLORIDE] | 0.523 | 0.481 | – | 0.375 | 0.277 | 0.181 | 0.413 | 0.596 | 0.615 |

The next lines start with results.

| GI50 (COLO 205) [µg/mL] | GI50 (SK-MEL-5) [µg/mL] | Ki [3] [nM] | GI50 (K562) [µg/mL] | GI50 (MOLT-4F) [µg/mL] | GI50 (CCRF-CEM) [µg/mL] | GI50 (HL-60) [µg/mL] | SMILES | GI50 [1] [µg/mL] | GI50 [2] [µg/mL] |
| --- | --- | --- | --- | --- | --- | --- | --- | --- | --- |
| 2.49 (≈ 6.03 µM) | 5.81 (≈ 14.1 µM) | 14.5 | 1.09 (≈ 2.64 µM) | 1.34 (≈ 3.26 µM) | 0.65 (≈ 1.58 µM) | > 10 | CC(C)(C)C(=O)OCC1(CO)C/C(=C\CCCCCCCCCCCO)C(=O)O1 (stereo not given) | > 10 | > 10 |
| – | – | 6.4 | – | – | – | – | CC(C)(C)C(=O)OCC1(CO)C/C(=C\CCCCCCCCCCCCCCCO)C(=O)O1 (stereo not given) | – | – |
| 2.34 (≈ 4.99 µM) | 5.34 (≈ 11.4 µM) | 8.24 | 0.872 (≈ 1.86 µM) | 1.37 (≈ 2.93 µM) | 6.63 (≈ 14.1 µM) | 6.39 (≈ 13.6 µM) | CC(C)(C)C(=O)OCC1(CO)C/C(=C/CCCCCCCCCCCCCCCO)C(=O)O1 (stereo not given) | > 10 | > 10 |
| 5.14 (≈ 11 µM) | > 10 | 11.4 | 2.58 (≈ 5.53 µM) | 2.02 (≈ 4.33 µM) | > 10 | > 10 | CC(C)(C)C(=O)OCC1(CO)C/C(=C/CCCCCCCCCCCCCCC=O)C(=O)O1 (stereo not given) | > 10 | > 10 |
| – | – | 39.3 | – | – | – | – | CC(C)(C)C(=O)OCC1(CO)C/C(=C\CCCCCCC=O)C(=O)O1 (stereo not given) | – | – |
| – | – | 29.7 | – | – | – | – | CC(C)(C)C(=O)OCC1(CO)C/C(=C\CCCCCCCCCCCCCCC(=O)O)C(=O)O1 (stereo not given) | – | – |
| – | – | 8 | – | – | – | – | CC(C)(C)C(=O)OCC1(CO)C/C(=C\CCCCCCCCCCCCCCCOC=O)C(=O)O1 (stereo not given) | – | – |
| 1.53 (≈ 3.28 µM) | 5.1 (≈ 10.9 µM) | 36.4 | 1.52 (≈ 3.25 µM) | 3.17 (≈ 6.77 µM) | 2.82 (≈ 6.03 µM) | > 10 | CC(C)(C)C(=O)OCC1(CO)C/C(=C\CCCCCCCCCCCCCCCN)C(=O)O1 (stereo not given) | > 10 | 8.43 (≈ 18 µM) |
| – | – | 191 | – | – | – | – | COCCCCCCC/C=C1\CC(CO)(COC(=O)C(C)(C)C)OC1=O (stereo not given) | – | – |
| 0.541 (≈ 1.27 µM) | 2.81 (≈ 6.58 µM) | 8.2 | 0.516 (≈ 1.21 µM) | 2.38 (≈ 5.59 µM) | 0.701 (≈ 1.64 µM) | 5.22 (≈ 12.2 µM) | COCCCCCCCCCCC/C=C1\CC(CO)(COC(=O)C(C)(C)C)OC1=O (stereo not given) | 7.34 (≈ 17.2 µM) | > 10 |
| 0.253 (≈ 0.596 µM) | 0.779 (≈ 1.83 µM) | 7.83 | < 0.1 | 0.227 (≈ 0.535 µM) | 0.14 (≈ 0.33 µM) | 2.4 (≈ 5.65 µM) | CCCCCCCCCCCCC/C=C1\CC(CO)(COC(=O)C(C)(C)C)OC1=O (stereo not given) | 2.27 (≈ 5.34 µM) | > 10 |
| – | – | 7.44 | – | – | – | – | CCCCCCCCCOCCC/C=C1\CC(CO)(COC(=O)C(C)(C)C)OC1=O (stereo not given) | – | – |
| – | – | 378 | – | – | – | – | CC(C)(C)C(=O)OCC1(CO)C/C(=C\CCCCCCCO)C(=O)O1 (stereo not given) | – | – |
| > 10 | > 10 | 6.38 | 5.11 (≈ 10.9 µM) | > 10 | 0.933 (≈ 2 µM) | > 10 | CC(C)(C)C(=O)OCC1(CO)C/C(=C\CCCCCCCCCCCCCCC=O)C(=O)O1 (stereo not given) | > 10 | > 10 |
| – | – | 7.15 | – | – | – | – | CCCCCCCCCCCCC/C=C1/CC(CO)(COC(=O)C(C)(C)C)OC1=O (stereo not given) | – | – |
| – | – | 30.3 | – | – | – | – | CC(C)(C)C(=O)OCC1(CO)C/C(=C\CCCCCCCCCCC=O)C(=O)O1 (stereo not given) | – | – |
